Laboratory results taken from ChEMBL document CHEMBL2321853, “Novel acylethanolamide derivatives that modulate body weight through enhancement of hypothalamic pro-opiomelanocortin (POMC) and/or decreased neuropeptide Y (NPY)” (J Med Chem, 2013).
The source made the active and inactive calls. The calls are words filed in the database; no cut-off is given here.

What was measured:
Mus musculus [1] = assay: Antiobesity activity in Sabra mouse assessed as change in food consumption at 1 mg/kg, ip administered on day 8, 9, 10, 11, 14, 18, 24 and 32 measured after 3 weeks relative to control; type: functional; conditions: route intraperitoneal
Mus musculus [2] = assay: Antiobesity activity in C57BL/6 mouse assessed as weight loss at 5 mg/kg, ip administered on day 1, 4, 5, 7, 17, 15, 19 measured on day 3 relative to control; type: functional; conditions: route intraperitoneal
Mus musculus [3] = assay: Antiobesity activity in Sabra mouse assessed as reduction in body weight at 1 mg/kg, ip administered on day 0, 10, 11, 12, 24, 29 measured on day 19 relative to control; type: functional; set-up: scale not given: the % may be the effect or the level left; conditions: route intraperitoneal
Mus musculus [4] = assay: Antiobesity activity in leptin-deficient ob/ob mouse assessed as reduction in body weight at 10 mg/kg via oral gavage; type: functional, organism-based; set-up: dose 10 mg/kg
Hypothalamus [5] = assay: Effect on POMC gene expression in Sabra mouse hypothalamus assessed as increase in mRNA level at 1 mg/kg, ip administered on day 6 to 10 measured on day 16 by RT-PCR analysis relative to control; type: functional; conditions: route intraperitoneal
Mus musculus [6] = assay: Antiobesity activity in Sabra mouse assessed as reduction in body weight at 1 mg/kg, ip administered on day 0, 10, 11, 12, 24, 29 measured on day 22 relative to control; type: functional; set-up: scale not given: the % may be the effect or the level left; conditions: route intraperitoneal
Mus musculus [7] = assay: Toxicity in Sabra mouse assessed as morphological changes in neuronal cells at 1 mg/kg, ip administered on day 8, 9, 10, 11, 14, 18, 24 and 32 by hematoxylin and eosin staining-based histopathological analysis; type: organism-based; set-up: dose 1 mg/kg, route intraperitoneal; conditions: in vivo
Hypothalamus [8] = assay: Decrease in 2-AG level in Sabra mouse hypothalamus at 8 mg/kg, ip for 39 days (reference value: 100 +/- 7 %); type: functional; set-up: scale not given: the % may be the effect or the level left; conditions: route intraperitoneal
Mus musculus [9] = assay: Antiobesity activity in Sabra mouse assessed as reduction in body weight at 1 mg/kg, ip administered on day 6 to 10 measured on day 16 relative to control; type: functional; set-up: scale not given: the % may be the effect or the level left; conditions: route intraperitoneal
Mus musculus [10] = assay: Enhancement of motor activity in Sabra mouse at 10 mg/kg, ip administered on day 6 to 10 by open field test relative to control; type: functional; conditions: route intraperitoneal
Hypothalamus [11] = assay: Effect on CART gene expression in Sabra mouse hypothalamus assessed as change in mRNA level at 1 mg/kg, ip administered on day 8, 9, 10, 11, 14, 18, 24 and 32 by RT-PCR analysis relative to GAPDH; type: functional; conditions: route intraperitoneal
Mus musculus [12] = assay: Antiobesity activity in C57BL/6 mouse assessed as change in glucose level in blood at 5 mg/kg, ip administered on day 1, 4, 5, 7, 17, 15, 19 measured on day 19 relative to control; type: functional; conditions: route intraperitoneal
Mus musculus [13] = assay: Antiobesity activity in Sabra mouse assessed as change in body weight at 1 mg/kg, ip administered on day 8, 9, 10, 11, 14, 18, 24 and 32 measured on day 4 relative to control; type: functional; conditions: route intraperitoneal
Mus musculus [14] = assay: Antiobesity activity in high fat diet fed C57BL/6 mouse assessed as reduction food consumption at 1 mg/kg, ip administered on day 3, 6, 8, 9, 10 measured after week 1 relative to control; type: functional; set-up: scale not given: the % may be the effect or the level left; conditions: route intraperitoneal
Mus musculus [15] = assay: Antiobesity activity in C57BL/6 mouse assessed as weight loss at 5 mg/kg, ip administered on day 1, 4, 5, 7, 17, 15, 19 measured on day 11 relative to control; type: functional; conditions: route intraperitoneal
Mus musculus [16] = assay: Antiobesity activity in Sabra mouse assessed as reduction in body weight at 1 mg/kg, ip administered on day 0, 10, 11, 12, 24, 29 measured on day 12 relative to control; type: functional; set-up: scale not given: the % may be the effect or the level left; conditions: route intraperitoneal
Mus musculus [17] = assay: Antiobesity activity in Sabra mouse assessed as change in body weight at 1 mg/kg, ip administered on day 8, 12 and 43 measured on day 54 relative to control; type: functional; conditions: route intraperitoneal
[18] = target: T1, Peroxisome proliferator-activated receptor alpha (Homo sapiens) (UniProt Q07869); assay: Binding affinity to human recombinant PPARalpha expressed in Escherichia coli at 10 uM for 16 hrs by spectrofluorimetric analysis relative to control
T1 sequence (whole entry): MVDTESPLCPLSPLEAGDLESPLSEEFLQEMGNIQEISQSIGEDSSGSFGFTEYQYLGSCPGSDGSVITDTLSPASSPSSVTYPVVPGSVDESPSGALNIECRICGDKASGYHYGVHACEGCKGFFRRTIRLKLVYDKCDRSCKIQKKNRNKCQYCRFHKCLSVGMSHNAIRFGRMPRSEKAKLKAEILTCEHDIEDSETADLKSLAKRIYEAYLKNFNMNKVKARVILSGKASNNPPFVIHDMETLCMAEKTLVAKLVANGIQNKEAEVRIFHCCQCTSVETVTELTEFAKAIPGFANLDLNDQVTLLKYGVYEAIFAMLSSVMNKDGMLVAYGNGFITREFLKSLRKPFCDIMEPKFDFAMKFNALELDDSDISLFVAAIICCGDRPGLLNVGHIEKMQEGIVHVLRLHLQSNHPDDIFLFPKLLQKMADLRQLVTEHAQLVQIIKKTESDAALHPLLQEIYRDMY

Mus musculus [19] = assay: Hepatotoxicity in Sabra mouse assessed as inflammatory changes at 1 mg/kg, ip administered on day 8, 9, 10, 11, 14, 18, 24 and 32 by hematoxylin and eosin staining-based histopathological analysis; type: toxicity, organism-based; set-up: dose 1 mg/kg, route intraperitoneal; conditions: in vivo
Mus musculus [20] = assay: Antiobesity activity in C57BL/6 mouse assessed as change in glucose level in blood at 5 mg/kg, ip administered on day 1, 4, 5, 7, 17, 15, 19 measured on day 9 relative to control; type: functional; conditions: route intraperitoneal
Mus musculus [21] = assay: Enhancement of motor activity in Sabra mouse at 1 mg/kg, ip administered on day 6 to 10 by open field test relative to control; type: functional; conditions: route intraperitoneal
Mus musculus [22] = assay: Enhancement of cognitive function C57BL/6 mouse assessed as reduction food consumption at 1 mg/kg, ip administered on day 3, 6, 8, 9, 10 measured on day 10; type: functional, organism-based; set-up: dose 1 mg/kg
Mus musculus [23] = assay: Antiobesity activity in C57BL/6 mouse assessed as change in glucose level in blood at 5 mg/kg, ip administered on day 1, 4, 5, 7, 17, 15, 19 measured on day 15 relative to control; type: functional; conditions: route intraperitoneal
Mus musculus [24] = assay: Increase in ALT levels in Sabra mouse at 1 mg/kg, ip administered on day 8, 12 and 43 measured on day 74; type: ADME, organism-based; set-up: dose 1 mg/kg, route intraperitoneal; conditions: in vivo
Mus musculus [25] = assay: Antiobesity activity in Sabra mouse assessed as reduction in body weight at 1 mg/kg, ip administered on day 0, 10, 11, 12, 24, 29 measured on day 29 relative to control; type: functional; set-up: scale not given: the % may be the effect or the level left; conditions: route intraperitoneal
Mus musculus [26] = assay: Toxicity in Sabra mouse assessed as morphological changes in glial cells at 1 mg/kg, ip administered on day 8, 9, 10, 11, 14, 18, 24 and 32 by hematoxylin and eosin staining-based histopathological analysis; type: organism-based; set-up: dose 1 mg/kg, route intraperitoneal; conditions: in vivo
Hypothalamus [27] = assay: Effect on FAAH gene expression in Sabra mouse hypothalamus assessed as change in mRNA level at 1 mg/kg, ip administered on day 8, 9, 10, 11, 14, 18, 24 and 32 by RT-PCR analysis relative to GAPDH; type: functional; conditions: route intraperitoneal
Mus musculus [28] = assay: Antiobesity activity in Sabra mouse assessed as change in food consumption at 1 mg/kg, ip administered on day 8, 9, 10, 11, 14, 18, 24 and 32 measured after 4 weeks relative to control; type: functional; conditions: route intraperitoneal

Work on `CCCCCCCC/C=C\CCCCCCCC(=O)N[C@H](CO)C(C)C` yielded an Activity (Mus musculus [1]) of 91.2%, an Activity (Mus musculus [2]) of -2.6% and an Activity (Mus musculus [3]) of -1.85%. The Activity (Mus musculus [4]) was “inactive”, the Activity (Hypothalamus [5]) was 50% and the Activity (Mus musculus [6]) was -3.06%. For the same compound, the Activity (Mus musculus [7]) was “Non-toxic”, the Activity (Hypothalamus [8]) was 44.5% and the Activity (Mus musculus [9]) was 4.6%. The Activity (Mus musculus [10]) was 30%, the Activity (Hypothalamus [11]) was 15% and the Activity (Mus musculus [12]) was -21.6%. The Activity (Mus musculus [13]) was 0.5%, the Activity (Mus musculus [14]) was 22% and the Activity (Mus musculus [15]) was -3.2%. For the same compound, the Activity (Mus musculus [16]) was -1.79%, the Activity (Mus musculus [17]) was -8.2% and the Activity [18] was 2%. For the same compound, the Activity (Mus musculus [19]) was “Non-toxic”, the Activity (Mus musculus [20]) was -11.8% and the Activity (Mus musculus [21]) was 20%. The Activity (Mus musculus [22]) was “Active”, the Activity (Mus musculus [23]) was -16.3% and the Activity (Mus musculus [24]) was “Not Active”. The Activity (Mus musculus [25]) was -5.98%, the Activity (Mus musculus [26]) was “Non-toxic” and the Activity (Hypothalamus [27]) was -33%. For the same compound, the Activity (Mus musculus [28]) was 90.3%.
